Measurements taken from ChEMBL document CHEMBL5357020, “Reducing Self-Assembly by Increasing Net Charge: Effect on Biological Activity of Mastoparan C” (ACS Med Chem Lett, 2024).
The source made the active and inactive calls. The rule behind the calls is not given here.

Assays:
[1] = system: Listeria monocytogenes; assay: Antimicrobial activity against Listeria monocytogenes ATCC 15313 assessed as reduction in microbial growth after 24 hrs by broth microdilution method; format: functional
[2] = system: Bacillus cereus; assay: Antimicrobial activity against Bacillus cereus ATCC 11778 assessed as reduction in microbial growth after 24 hrs by broth microdilution method; format: functional
[3] = system: Escherichia coli; assay: Antimicrobial activity against Escherichia coli ATCC 25922 assessed as reduction in microbial growth after 24 hrs by broth microdilution method; format: functional
[4] = system: Salmonella enterica; assay: Antimicrobial activity against Salmonella enterica ATCC 13076 assessed as reduction in microbial growth after 24 hrs by broth microdilution method; format: functional
[5] = system: Pseudomonas aeruginosa; assay: Antimicrobial activity against Pseudomonas aeruginosa ATCC 27853 assessed as reduction in microbial growth after 24 hrs by broth microdilution method; format: functional
[6] = system: Candida albicans; assay: Antifungal activity against Candida albicans ATCC 10231 assessed as reduction in fungal growth after 24 hrs by broth microdilution method; format: functional
[7] = system: Enterococcus faecalis; assay: Antimicrobial activity against Enterococcus faecalis ATCC 29212 assessed as reduction in microbial growth after 24 hrs by broth microdilution method; format: functional
[8] = system: Staphylococcus aureus; assay: Antimicrobial activity against Staphylococcus aureus ATCC 25923 assessed as reduction in microbial growth after 24 hrs by broth microdilution method; format: functional
[9] = system: Erythrocyte; assay: Hemolytic activity in human RBC assessed as hemolysis at 32 uM incubated for 30 mins; format: toxicity, cell-based; settings: 0.5 h
[10] = system: Erythrocyte; assay: Hemolytic activity in human RBC assessed as hemolysis at 2 to 128 uM incubated for 30 mins; format: toxicity, cell-based; settings: 0.5 h, dose 2-128 µM
[11] = system: A-427; assay: Anticancer activity against human A-427 cells assessed as inhibition of cell growth incubated for 24 hrs by CCK-8 assay; format: functional, cell-based; settings: A-427, 24 h
[12] = system: NCI-H441; assay: Anticancer activity against human NCI-H441 cells assessed as inhibition of cell growth incubated for 24 hrs by CCK-8 assay; format: functional, cell-based

Molecule	MIC [1] [µM]	MIC [2] [µM]	MIC [3] [µM]	MIC [4] [µM]	MIC [5] [µM]	MIC [6] [µM]	MIC [7] [µM]	MIC [8] [µM]	Activity [9]	Activity [10]	IC50 [11] [µM]	Activity [12]
O=C(N[C@H](CO)[C@H](O)c1ccc([N+](=O)[O-])cc1)C(Cl)Cl [CHLORAMPHENICOL]	64	8	8	8	> 128	> 128	64	32				
NC[C@H]1O[C@H](O[C@H]2[C@H](O)[C@@H](O[C@H]3O[C@H](CO)[C@@H](O)[C@H](N)[C@H]3O)[C@H](N)C[C@@H]2N)[C@H](O)[C@@H](O)[C@@H]1O [KANAMYCIN]	32	64	32	16	> 128	> 128	> 128	32				
H-LNLKALLAVAKKIL-NH2	8	4	8	32	64	8	4	32	Toxic	Non-Toxic		
H-LNLKKLLKVAKKIL-NH2	4	16	8	32	64	16	4	32		Non-Toxic		
H-LNLKKLLAVAKKIL-NH2	8	16	8	64	128	32	8	64		Non-Toxic	5.1	Active
H-LNLKALLKVAKKIL-NH2	4	8	8	64	64	16	4	32	Toxic	Non-Toxic	7	Active
